{"source": "patent US20220336811A1", "about": "“CATHODE ACTIVE MATERIAL FOR SECONDARY BATTERY COMPRISING CHARGE TRANSFER COMPLEX AND METHOD FOR MANUFACTURING SAME” (SEOUL NATIONAL UNIVERSITY R&DB FOUNDATION, priority 2019, published 2022)", "details": "3 h", "experimental": "The synthesized cathode mixtures were rolled with a stainless steel (SUS) rod and cut to a size of 1.5 cm×1.5 cm to produce cathodes for secondary batteries.\nThe cathodes produced in Embodiment 2 were put in 4 mL of a tetraethyleneglycol dimethylether (TEGDME) solvent, and stored in a 60° C. oven for 3 hours, and then solubilities of the cathode active materials for a solvent in an electrolyte were measured through ultraviolet-visible (UV-Vis) spectroscopy by using the used solvent."}
{"molecule": "N#CC(C#N)=c1ccc(=C(C#N)C#N)cc1", "note": "[compound 2, 7,7,8,8-tetracyanoquinodimethane]", "values": [{"measurement": "solubility", "value": 5.625, "unit": "mM"}]}
{"molecule": "c1ccc2nc3ccccc3nc2c1", "note": "[compound 1, phenazine]", "values": [{"measurement": "solubility", "value": 9.087, "unit": "mM"}]}
